Earlier results, collected in patent publication US12128121B2, “Compositions comprising organo-silanol compounds, and applications” (EXSYMOL, priority 2020, dated 2024).
Like-named read-outs stand apart in the source and are kept apart here.

## C[Si](O)(O)O [CH3—Si(OH)3, monomethylsilanetriol]
As silicon, CH3—Si(OH)3
  concentration in water: ~588 mg Si/I
Limit before self-condensation
  concentration in water: ~21 mM
